Patent US20190263796A1, “LIM KINASE INHIBITORS, PHARMACEUTICAL COMPOSITION AND METHOD OF USE IN LIMK-MEDIATED DISEASES” (CELLIPSE, priority 2016, published 2019)

Legend:
Format in all cases: cell-based
P-MEK/Total MEK [1] = experiment: Western blot MEK1 phosphorylation, MOLM-13; conditions: for IC50: Homo sapiens, read-out: IC50 P-MEK/Total MEK
Description: (§1) MOLM-13 cell line was originally purchased from the Leibniz-Institut Deutsche Sammlung von Mikroorganismen und Zellkulturen GmbH (DSMZ). MOLM-13 cells are cultured in RPMI 1640 20% (v/v) FBS supplemented with 100 U/mL^−1 penicillin, 0.1 mg·mL^−1 streptomycin (PAN Biotech P06-07100). Cells were maintained at 37° C. with 5% CO2.
(§2) In a 6 wells plate (Falcon 353046), 2·10^6 cells in 1.5 mL medium are treated for 2 h with compounds. Cells are then collected and cell lysis is performed at 4° C. using RIPA buffer supplemented with protease inhibitors cocktail (Sigma-Aldrich P8340) and phosphatase inhibitors cocktail (Sigma-Aldrich P5726). Following centrifugation 30 min 15000 g 4° C., supernatants are mixed with Laemmli buffer and denaturation is performed by heating 5 min 95° C. 10 μL of samples are subjected to electrophoresis on 15% SDS-PAGE. After electro-transfer (Mini Transblot, Bio-Rad), the PVDF membrane (Merck-Millipore Immobilon P IPVH00010) is blocked with Tris Buffered Saline, pH 7.4 (TBS) with 0.1% Tween 20 and 5% BSA for 1 h at room temperature under agitation. The membrane was rinsed 3 times 10 min at room temperature under agitation with TBS, 0.1% Tween-20 (TBST) and then 1 h at room temperature with anti-phospho-Ser218/222-MEK1 (Merck-Millipore 07-461, 1/1000 dilution) antibody or anti-MEK1 (Merck-Millipore 07-641, 1/1000 dilution) diluted in TBS, 0.1% Tween 20 and 1% BSA. The membrane is then rinsed 3 times 10 min RT under agitation in TBST and incubated for 1 h with anti-rabbit secondary antibody, horseradish peroxidase conjugated (Jackson Immunoresearch #711-036-152) under agitation at room temperature. After three washes 10 min at room temperature in TBST, the detection of total or phosphorylated cofilin was performed using chemiluminescence kit ECL™ Plus (GE Healthcare RPN2132). For each concentration of compound, ratio between phosphorylated cofilin and total cofilin is determined. This ratio is then expressed as percentage of control ratio (i.e., ratio from DMSO treated cells). IC50 P-MEK/Total MEK is then determined.
(§3) Selectivity ratios are calculated by dividing the IC50 P-MEK/Total MEK value (μM) by the IC50 Phospho-Ser3-Cofilin/Total Cofilin value (μM).

P-MEK/Total MEK [2] = experiment: Western blot MEK1 phosphorylation, HL-60; conditions: HL-60 cells; for IC50: 2 h, read-out: IC50 P-MEK/Total MEK; for Selectivity ratio: IC50 P-MEK/Total MEK divided by IC50 Phospho-Ser3-Cofilin/Total Cofilin
Description: as §1, with “HL-60” for “MOLM-13”, “10%” for “20%”
as §2, §3

[3] = test system: Phospho-Ser3-Cofilin/Total Cofilin; experiment: Western blot cofilin phosphorylation, HL-60; conditions: HL-60 cells, 2 h
Description: as §1, with “HL-60” for “MOLM-13”, “10%” for “20%”
as §2, with “1 h RT under agitation.” for “1 h at room temperature under agitation.”, “temperature with anti-phospho-Ser3-cofilin (Cell Signaling Technology #3313, 1/1000 dilution)” for “temperature with anti-phospho-Ser218/222-MEK1 (Merck-Millipore 07-461, 1/1000 dilution)”, “antibody or anti-cofilin (Cell Signaling Technology #3312, 1/1000 dilution)” for “antibody or anti-MEK1 (Merck-Millipore 07-641, 1/1000 dilution)”, “10 min at room temperature under agitation” for “10 min RT under agitation”, “cells). IC50 Phospho-Ser3-Cofilin/Total Cofilin is then” for “cells). IC50 P-MEK/Total MEK is then”

[4] = test system: Phospho-Ser3-Cofilin/Total Cofilin; experiment: Western blot cofilin phosphorylation, MV4-11 (II.6); conditions: MV4-11 cells
Description: as §1, with “MV4-11” for “MOLM-13”, “purchased from the American Type Culture Collection (ATCC) or” for “purchased”, “P06-07100) and 2 mM Glutamine (Sigma-Aldrich 59202C).” for “P06-07100).”
as §2, with “1 h RT under agitation.” for “1 h at room temperature under agitation.”, “temperature with anti-phospho-Ser3-cofilin (Cell Signaling Technology #3313, 1/1000 dilution)” for “temperature with anti-phospho-Ser218/222-MEK1 (Merck-Millipore 07-461, 1/1000 dilution)”, “antibody or anti-cofilin (Cell Signaling Technology #3312, 1/1000 dilution)” for “antibody or anti-MEK1 (Merck-Millipore 07-641, 1/1000 dilution)”, “10 min at room temperature under agitation” for “10 min RT under agitation”, “cells). IC50 Phospho-Ser3-Cofilin/Total Cofilin is then” for “cells). IC50 P-MEK/Total MEK is then”

[5] = test system: Phospho-Ser3-Cofilin/Total Cofilin; experiment: Western blot cofilin phosphorylation, K-562; conditions: Homo sapiens; K562 cells; 2 h
Description: as §1, with “K-562” for “MOLM-13”, “10%” for “20%”
as §2, with “1 h RT under agitation.” for “1 h at room temperature under agitation.”, “temperature with anti-phospho-Ser3-cofilin (Cell Signaling Technology #3313, 1/1000 dilution)” for “temperature with anti-phospho-Ser218/222-MEK1 (Merck-Millipore 07-461, 1/1000 dilution)”, “antibody or anti-cofilin (Cell Signaling Technology #3312, 1/1000 dilution)” for “antibody or anti-MEK1 (Merck-Millipore 07-641, 1/1000 dilution)”, “10 min at room temperature under agitation” for “10 min RT under agitation”, “cells). IC50 Phospho-Ser3-Cofilin/Total Cofilin is then” for “cells). IC50 P-MEK/Total MEK is then”

[6] = test system: Phospho-Ser3-Cofilin/Total Cofilin; experiment: Western blot cofilin phosphorylation, THP-1; conditions: Homo sapiens; THP-1 cells; 2 h
Description: as §1, with “THP-1” for “MOLM-13”
In a 6 wells plate (Falcon 353046), 2·10^6 cells in 1.5 mL medium are treated for 2 h with compounds. Cells are then collected and cell lysis is performed at 4° C. using RIPA buffer supplemented with protease inhibitors cocktail (Sigma-Aldrich P8340) and phosphatase inhibitors cocktail (Sigma-Aldrich P5726). Following centrifugation 30 min 15000 g 4° C., supernatants are mixed with Laemmli buffer and denaturation is performed by heating 5 min 95° C. 10 μL of samples are subjected to electrophoresis on 15% SDS-PAGE. After electro-transfer (Mini Transblot, Bio-Rad), the PVDF membrane (Merck-Millipore Immobilon P IPVH00010) is blocked with Tris Buffered Saline, pH 7.4 (TBS) with 0.1% Tween 20 and 5% BSA for 1 h RT under agitation. […] For each concentration of compound, ratio between phosphorylated cofilin and total cofilin is determined. This ratio is then expressed as percentage of control ratio (i.e., ratio from DMSO treated cells). IC50 Phospho-Ser3-Cofilin/Total Cofilin is then determined.

P-MEK/Total MEK [7] = experiment: Western blot MEK1 phosphorylation, K-562; conditions: for IC50: Homo sapiens, read-out: IC50 P-MEK/Total MEK; for Selectivity ratio: IC50 P-MEK/Total MEK divided by IC50 Phospho-Ser3-Cofilin/Total Cofilin
Description: as §1, with “K-562” for “MOLM-13”, “10%” for “20%”
as §2, §3

IC50 (P-MEK/Total MEK [1]; MOLM-13 cells, 2 h) [nM]	IC50 (P-MEK/Total MEK [2]) [nM]	IC50 [3] [nM]	IC50 ([4]; 2 h) [nM]	IC50 (P-MEK/Total MEK [2]; Homo sapiens) [nM]	IC50 ([3]; Homo sapiens) [nM]	IC50 ([4]; Homo sapiens, MV4-11, 2 h) [nM]	IC50 (P-MEK/Total MEK [7]; K562 cells, 2 h) [nM]	SMILES	Selectivity ratio (P-MEK/Total MEK [1]; MOLM-13 cells, IC50 P-MEK/Total MEK divided by IC50 Phospho-Ser3-Cofilin/Total Cofilin)	Selectivity ratio (P-MEK/Total MEK [2])	IC50 [5] [nM]	IC50 [6] [nM]	Selectivity ratio (P-MEK/Total MEK [7]; K562 cells)	IC50 (P-MEK/Total MEK [1]; MOLM-13, 2 h) [nM]	IC50 ([4]; Homo sapiens, 2 h) [nM]	IC50 (P-MEK/Total MEK [7]; K562, 2 h) [nM]
> 1000	> 1000	< 200	< 200	–	–	–	–	O=S(=O)(Nc1cccc(-c2nc(CCO)sc2-c2ccnc(Nc3ccccc3)n2)c1F)c1c(F)cccc1F [8 (Na)]	42	42	–	–	–	–	–	–
–	–	–	–	> 1000	< 200	200 to 1000	200 to 1000	O=S(=O)(Nc1cccc(-c2nc(CCO)sc2-c2ccnc(Nc3ccccc3)n2)c1F)c1c(F)cccc1F [Compound 8, 2,6-difluoro-N-(2-fluoro-3-(2-(2-hydroxyethyl)-5-(2-(phenylamino)pyrimidin-4-yl)thiazol-4-yl)phenyl)benzenesulfonamide]	–	31	< 200	< 200	20	–	–	–
–	–	–	–	–	–	–	–	CNC(=O)Cc1nc(-c2cccc(NS(=O)(=O)c3c(F)cccc3F)c2F)c(-c2ccnc(Nc3ccccc3)n2)s1 [Compound 9, 2-(4-(3-(2,6-difluorophenylsulfonamido)-2-fluorophenyl)-5-(2-(phenylamino)pyrimidin-4-yl)thiazol-2-yl)-N-methylacetamide]	–	–	< 200	< 200	–	> 1000	200 to 1000	> 1000
–	–	–	–	–	–	–	–	CC(C)(C)c1nc(-c2cccc(NS(=O)(=O)c3c(F)cccc3F)c2F)c(-c2ccnc(Nc3ccccc3)n2)s1 [Compound 1, N-(3-(2-(tert-butyl)-5-(2-(phenylamino)pyrimidin-4-yl)thiazol-4-yl)-2-fluorophenyl)-2,6-difluorobenzenesulfonamide]	–	–	200 to 1000	–	8	–	< 200	> 1000
